Assay results published in US10358436B2, “Kinase inhibitors and method of treating cancer” (University Health Network, priority 2010, dated 2019).
Counter-ions that a name gives are not always drawn.

Molecular target: Aurora A (Homo sapiens (Human), UniProt O14965)
Assay: Aurora A inhibition assay (Z-Lyte)
Assay type: biochemical

Chain of Aurora A (O14965 whole entry): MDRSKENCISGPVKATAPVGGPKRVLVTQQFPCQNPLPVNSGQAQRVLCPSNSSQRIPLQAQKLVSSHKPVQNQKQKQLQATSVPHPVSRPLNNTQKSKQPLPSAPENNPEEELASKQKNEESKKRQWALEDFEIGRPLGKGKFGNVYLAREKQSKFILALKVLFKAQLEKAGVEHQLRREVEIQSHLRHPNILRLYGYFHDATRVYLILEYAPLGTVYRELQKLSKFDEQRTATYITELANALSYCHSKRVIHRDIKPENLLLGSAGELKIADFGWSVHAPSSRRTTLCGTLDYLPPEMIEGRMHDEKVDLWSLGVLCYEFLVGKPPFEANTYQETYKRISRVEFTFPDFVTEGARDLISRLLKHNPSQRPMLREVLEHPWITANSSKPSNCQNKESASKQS

Row | inhibition at 1 µM [%] | Compound
1 | > 50 | COc1ccc2c(c1)[C@]1(C[C@H]1c1ccc3c(/C=C/c4ccc5c(c4)CN(C)CC5)n[nH]c3c1)C(=O)N2 [Example A64, (1R,2S)-5′-methoxy-2-(3-((E)-2-(2-methyl-1,2,3,4-tetrahydroisoquinolin-7-yl)vinyl)-1H-indazol-6-yl)spiro[cyclopropane-1,3′-indolin]-2′-one 2,2,2-trifluoroacetate salt]
2 | > 50 | CN1CCc2ccc(/C=C/c3n[nH]c4cc([C@@H]5C[C@@]56C(=O)Nc5ccccc56)ccc34)cc2C1 [Example A65, (1R,2S)-2-(3-((E)-2-(2-methyl-1,2,3,4-tetrahydroisoquinolin-7-yl)vinyl)-1H-indazol-6-yl)spiro[cyclopropane-1,3′-indolin]-2′-one 2,2,2-trifluoroacetate salt]
3 | > 50 | COc1ccc2c(c1)[C@]1(C[C@H]1c1ccc3c(/C=C/c4ccc5c(c4)CNCC5)n[nH]c3c1)C(=O)N2 [Example A66, (1R,2S)-5′-methoxy-2-(3-((E)-2-(1,2,3,4-tetrahydroisoquinolin-7-yl)vinyl)-1H-indazol-6-yl)spiro[cyclopropane-1,3′-indolin]-2′-one 2,2,2-trifluoroacetate salt]
4 | < 50 | COc1ccc2c(c1)[C@]1(C[C@H]1c1ccc3c(-c4ccc(OCCN5CCCCC5)cc4)n[nH]c3c1)C(=O)N2 [Example A67, (1R,2S)-5′-methoxy-2-(3-(4-(2-(piperidin-1-yl)ethoxy)phenyl)-1H-indazol-6-yl)spiro[cyclopropane-1,3′-indolin]-2′-one 2,2,2-trifluoroacetate salt]
5 | < 50 | COc1ccc2c(c1)[C@]1(C[C@H]1c1ccc3c(-c4ccc(OCCN5CCOCC5)cc4)n[nH]c3c1)C(=O)N2 [Example A68, (1R,2S)-5′-methoxy-2-(3-(4-(2-morpholinoethoxy)phenyl)-1H-indazol-6-yl)spiro[cyclopropane-1,3′-indolin]-2′-one 2,2,2-trifluoroacetate salt]
6 | < 50 | COc1ccc2c(c1)[C@]1(C[C@H]1c1ccc3c(-c4ccc5c(c4)CN(C)CC5)n[nH]c3c1)C(=O)N2 [Example A70, (1R,2S)-5′-methoxy-2-(3-(2-methyl-1,2,3,4-tetrahydroisoquinolin-7-yl)-1H-indazol-6-yl)spiro[cyclopropane-1,3′-indolin]-2′-one 2,2,2-trifluoroacetate salt]
7 | < 50 | COc1ccc2c(c1)[C@]1(C[C@H]1c1ccc3c(-c4ccc5c(c4)CNCC5)n[nH]c3c1)C(=O)N2 [Example A71, (1R,2S)-5′-methoxy-2-(3-(1,2,3,4-tetrahydroisoquinolin-7-yl)-1H-indazol-6-yl)spiro[cyclopropane-1,3′-indolin]-2′-one 2,2,2-trifluoroacetate salt]
8 | > 50 | COc1ccc2c(c1)[C@]1(C[C@H]1c1ccc3c(/C=C/c4ccc(CN5CCCOCC5)cc4)n[nH]c3c1)C(=O)N2 [Example A73, (1R,2S)-(E)-2-(3-(4-((1,4-oxazepan-4-yl)methyl)styryl)-1H-indazol-6-yl)-5′-methoxyspiro[cyclopropane-1,3′-indolin]-2′-one 2,2,2-trifluoroacetate salt]
9 | > 50 | CN1CCc2cc(/C=C/c3n[nH]c4cc([C@@H]5C[C@@]56C(=O)Nc5ccccc56)ccc34)ccc2C1 [Example A74, (1R,2S)-2-(3-((E)-2-(2-methyl-1,2,3,4-tetrahydroisoquinolin-6-yl)vinyl)-1H-indazol-6-yl)spiro[cyclopropane-1,3′-indolin]-2′-one 2,2,2-trifluoroacetate salt]
10 | > 50 | COc1ccc2c(c1)[C@]1(C[C@H]1c1ccc3c(/C=C/c4ccc5c(c4)CCN(C)C5)n[nH]c3c1)C(=O)N2 [Example A75, (1R,2S)-5′-methoxy-2-(3-((E)-2-(2-methyl-1,2,3,4-tetrahydroisoquinolin-6-yl)vinyl)-1H-indazol-6-yl)spiro[cyclopropane-1,3′-indolin]-2′-one 2,2,2-trifluoroacetate salt]
11 | < 50 | CN1CCc2cc(-c3n[nH]c4cc([C@@H]5C[C@@]56C(=O)Nc5ccccc56)ccc34)ccc2C1 [Example A76, (1R,2S)-2-(3-(2-methyl-1,2,3,4-tetrahydroisoquinolin-6-yl)-1H-indazol-6-yl)spiro[cyclopropane-1,3′-indolin]-2′-one 2,2,2-trifluoroacetate salt]
12 | > 50 | COc1ccc2c(c1)[C@]1(C[C@H]1c1ccc3c(/C=C/c4ccc(OC5CCN(C)CC5)cc4)n[nH]c3c1)C(=O)N2 [Example A79, (1R,2S)-(E)-5′-methoxy-2-(3-(4-(1-methylpiperidin-4-yloxy)styryl)-1H-indazol-6-yl)spiro[cyclopropane-1,3′-indolin]-2′-one 2,2,2-trifluoroacetate salt]
13 | > 50 | CC(C)(c1ccc(/C=C/c2n[nH]c3cc([C@@H]4C[C@@]45C(=O)Nc4ccccc45)ccc23)cc1)N1CCOCC1 [Example A80, (1R,2S)-(E)-2-(3-(4-(2-morpholinopropan-2-yl)styryl)-1H-indazol-6-yl)spiro[cyclopropane-1,3′-indolin]-2′-one 2,2,2-trifluoroacetate salt]
14 | > 50 | CN1CCC(Cc2ccc(/C=C/c3n[nH]c4cc([C@@H]5C[C@@]56C(=O)Nc5ccccc56)ccc34)cc2)CC1 [Example A81, (1R,2S)-(E)-2-(3-(4-((l-methylpiperidin-4-yl)methyl)styryl)-1H-indazol-6-yl)spiro[cyclopropane-1,3′-indolin]-2′-one 2,2,2-trifluoroacetate salt]
15 | > 50 | COc1ccc2c(c1)[C@]1(C[C@H]1c1ccc3c(/C=C/c4ccc(CC5CCN(C)CC5)cc4)n[nH]c3c1)C(=O)N2 [Example A82, (1R,2S)-(E)-5′-methoxy-2-(3-(4-((l-methylpiperidin-4-yl)methyl)styryl)-1H-indazol-6-yl)spiro[cyclopropane-1,3′-indolin]-2′-one 2,2,2-trifluoroacetate salt]
16 | > 50 | COc1ccc2c(c1)[C@]1(C[C@H]1c1ccc3c(/C=C/c4ccc(CN5CCCC5)cc4)n[nH]c3c1)C(=O)N2 [Example A83, (1R,2S)-(E)-5′-methoxy-2-(3-(4-(pyrrolidin-1-ylmethyl)styryl)-1H-indazol-6-yl)spiro[cyclopropane-1,3′-indolin]-2′-one 2,2,2-trifluoroacetate]
17 | < 50 | COc1ccc2c(c1)[C@]1(C[C@H]1c1ccc3c(-c4ccc(N5CCNCC5)cc4)n[nH]c3c1)C(=O)N2C [Example A101, (1R,2S)-5′-methoxy-1′-methyl-2-(3-(4-(piperazin-1-yl)phenyl)-1H-indazol-6-yl)spiro[cyclopropane-1,3′-indolin]-2′-one 2,2,2-trifluoroacetate]
18 | > 50 | COc1ccc2c(c1)[C@]1(C[C@H]1c1ccc3c(/C=C/c4ccc(CN5CCOCC5)cc4)n[nH]c3c1)C(=O)N2C [Example A102, (1R,2S)-(E)-5′-methoxy-1′-methyl-2-(3-(4-(morpholinomethyl)styryl)-1H-indazol-6-yl)spiro[cyclopropane-1,3′-indolin]-2′-one hydrochloride]
19 | > 50 | COc1ccc2c(c1)[C@]1(C[C@H]1c1ccc3c(/C=C/c4ccc(CN5CCOCC5)s4)n[nH]c3c1)C(=O)N2 [Example A105, (1R,2S)-5′-methoxy-2-(3-((E)-2-(5-(morpholinomethyl)thiophen-2-yl)vinyl)-1H-indazol-6-yl)spiro[cyclopropane-L3′-indolin]-2′-one hydrochloride]
20 | < 50 | COc1ccc2c(c1)[C@]1(C[C@H]1c1ccc3c(-c4ccc5nccn5c4)n[nH]c3c1)C(=O)N2 [Example A107, (1R,2S)-2-(3-(imidazo[1,2-a]pyridin-6-yl)-1H-indazol-6-yl)-5′-methoxyspiro[cyclopropane-1,3′-indolin]-2′-one 2,2,2-trifluoroacetate]

Row | Compound | inhibition at 1 µM [%]
21 | COc1ccc2c(c1)[C@]1(C[C@H]1c1ccc3c(-c4ccc(OCCN(C)C)cc4)n[nH]c3c1)C(=O)N2 [Example A69, (1R,2S)-2-(3-(4-(2-(dimethylamino)ethoxy)phenyl)-1H-indazol-6-yl)-5′-methoxyspiro[cyclopropane-1,3′-indolin]-2′-one 2,2,2-trifluoroacetate salt] | < 50
22 | CN1CCC(Oc2ccc(/C=C/c3n[nH]c4cc([C@@H]5C[C@@]56C(=O)Nc5ccccc56)ccc34)cc2)CC1 [Example A78, (1R,2S)-(E)-2-(3-(4-(1-methylpiperidin-4-yloxy)styryl)-1H-indazol-6-yl)spiro[cyclopropane-1,3′-indolin]-2′-one 2,2,2-trifluoroacetate salt] | > 50
23 | CN1C(=O)[C@@]2(C[C@H]2c2ccc3c(/C=C/c4ccc(N5CCNCC5)cc4)n[nH]c3c2)c2ccccc21 [Example A90, (1R,2S)-(E)-1′-methyl-2-(3-(4-(piperazin-1-yl)styryl)-1H-indazol-6-yl)spiro[cyclopropane-1,3′-indolin]-2′-one hydrochloride] | > 50
24 | O=C1Nc2ccccc2[C@]12C[C@H]2c1ccc2c(/C=C/c3ccc(N4CCNCC4)cc3)n[nH]c2c1 [Example A92, (1R,2S)-(E)-2-(3-(4-(piperazin-1-yl)styryl)-1H-indazol-6-yl)spiro[cyclopropane-1,3′-indolin]-2′-one bis(2,2,2-trifluoroacetate)] | > 50
25 | CN1C(=O)[C@@]2(C[C@H]2c2ccc3c(/C=C/c4ccc(CN5CCCCC5)cc4)n[nH]c3c2)c2ccccc21 [Example A94, (1R,2S)-(E)-1′-methyl-2-(3-(4-(piperidin-1-ylmethyl)styryl)-1H-indazol-6-yl)spiro[cyclopropane-1,3′-indolin]-2′-one hydrochloride] | > 50
26 | CCN1CCN(c2ccc(-c3n[nH]c4cc([C@@H]5C[C@@]56C(=O)Nc5ccc(OC)cc56)ccc34)cc2)CC1 [Example A99, (1R,2S)-2-(3-(4-(4-ethylpiperazin-1-yl)phenyl)-1H-indazol-6-yl)-5′-methoxyspiro[cyclopropane-1,3′-indolin]-2′-one 2,2,2-trifluoroacetate] | < 50
27 | O=C1Nc2ccccc2[C@]12C[C@H]2c1ccc2c(/C=C/c3ccc(CN4CC[C@@H](F)C4)cc3)n[nH]c2c1 [Example A106, (1R,2S)-(E)-2-(3-(4-(((R)-3-fluoropyrrolidin-1-yl)methyl)styryl)-1H-indazol-6-yl)spiro[cyclopropane-1,3′-indolin]-2′-one 2,2,2-trifluoroacetate] | > 50
